Source: patent publication EP1228058B1, “BENZOPYRANYL GUANIDINE DERIVATIVES, PROCESS FOR PREPARATION THEREOF, AND PHARMACEUTICAL COMPOSITIONS CONTAINING THEM” (Dongbu Hannong Chemical Co., Ltd., priority 1999, dated 2001)

How the values were obtained:
diabetic rats [1] = experiment: Nociceptive test (hot plate test) in diabetic rats; type: in vivo; details: 50 °C hot plate
Protocol: Effects on nociceptive responses of test compounds in rats were examined using hot plate. The same methods were applied for the induction of diabetes and treatment of test compound in rats. Rats were placed onto 50 °C hot plate, then latencies of nociceptive action such as licking were determined. The recovery (%) of nociceptive responses in diabetic rats was calculated according to the following mathematical […]. [Mathematical formula 5] Recovery(%) =(Response in treated group - Response in diabetic control)/(Response in normal control-Response in diabetic control)x100 [formula]

diabetic rats [2] = experiment: Effects on MNCV (motor nerve conduction velocity) in diabetic rats; type: in vivo; details: MNCV; 100 mg/Kg, orally once a day, diabetic rats
Protocol: Diabetes was induced with i.p. (intra peritoneum) injection of streptozocin (65 mg/Kg) in rats, then test compounds dissolved in 2 ml of media (physiological saline: ethanol: tween 80 = 8:1:1), were orally administered once a day. Rats were anesthetized with halothane, then the sciatic nerve was exposed to measure MNCV. The nerve was stimulated at two points. The first stimulus electrode was inserted at proximal end, and second stimulating electrode was inserted at the sciatic notch. The coaxial needle electrode was inserted into interdigital muscle, then the muscle action potential induced by two point stimulation. The conduction velocity was calculated by dividing the distance between two stimulus points by the latency difference. Lipoic acid (100 mg/Kg) was used in comparison with the compound of formula 1 in recovery of impaired MNCV in diabetic rats. The recovery (%) of MNCV was calculated according to the following mathematical formula 4. [Mathematical formula 4] Recovery(%) =(MNCV of treated group - MNCV of diabetic rats)/(MNCV of normal control-MNCV of diabetic rats)x100 [formula]

A7r5 = experiment: Inhibition of A7r5 mediated LDL oxidation (MDA); type: cell-based, rat; details: for % Inhibition LDL + H2O2 (10^-7M): A7r5 plus H2O2 (10^-7 M); for % Inhibition LDL: A7r5 alone, LDL 100 ug/ml, 24 hr
Protocol: A7r5 (ATCC CRL-1444, smooth muscles, thoracic aorta, BDIX rat) cells were cultured in 24 well plates, using the medium of DMEM (Dulbecco's modified Eagle's Medium) supplemented with 10% heat-inactivated FBS (fetal bovine serum) and 1% antibiotics. Confluent A7r5 from plates were washed with phosphate-buffered solution, and DMEM with 10% FBS and 1% antibiotics was added in a total volume of 0.5 ml/well. Cells (2 x 10^5 cells/ml) were preincubated without and with either test compounds (10^-6 - 10^-4 M) or Tocopherol (10^-6 - 10^-4 M) at 37 °C for 30 min. Then, A7r5 alone or A7r5 plus H2O2 (10^-7 M) were exposed to LDL (100 ug/ml) for 24 hr.
The inhibitory effect of the test compounds against the lipid peroxidation was evaluated by calculating MDA reduction rate of the test compounds compared with that of the control group same as the above example 5 (2).

HUVEC = experiment: Inhibition of intracellular ROS induced by H2O2 (H2DCFDA) in HUVEC; type: cell-based, Human
Protocol: Measurement of intracellular ROS (Reactive Oxygen Species) was determined using H2DCFDA (2',7'-dichlorodihydrofluorescein diacetate, Molecular Probes, Eugene, OR, USA). H2DCFDA is a non-polar compound that readily diffused into cells, where it is hydrolyzed by intracellular esterase to polar derivative H2DCF (2',7'-dichlorodihydrofluorescein) which can not cross the cell membrane, and thereby trapped within the cell. H2DCF is low-fluorescent, but converted to high-fluorescent DCF (2',7'-dichlorofluorescein) by intracellular ROS. Therefore, the intracellular ROS formation can be determined from the amount of converted DCF. HUVEC (Human umbilical Vascular Endothelial Cells) or A7r5 (Rat thoracic aorta smooth muscle cells) were used. HUVEC were cultured in Kaighn's F12K medium supplemented with 10% heat-inactivated FBS, 0.1 mg/ml heparin sodium, 0.03-0.05 mg/ml ECGS (Endothelial cell growth supplement) and 1% antibiotics, and A7r5 were cultured in DMEM supplemented with 10% heat inactivated FBS and 1% antibiotics. To measure the intracellular ROS, HUVEC or A7r5 were preincubated for 30 min in the presence of test compounds (10^-7-10^-5 M). Thereafter, cells were stimulated with H2O2 (10^-6 and 10^-5 M for 20 min), and then incubated in the dark for 2 hr at 37 °C in 50 mM phosphate buffer (pH 7.4) containing 5 uM H2DCFDA. The quantity of DCF fluorescence (485 nm excitation, 530 nm emission) was measured using Fluorescence plate reader (FL600, Biotek Instruments).

Human LDL = experiment: Inhibition of copper-induced LDL oxidation (MDA, TBA method); type: biochemical; details: CuSO4 10 uM, 18 hr
Protocol: Human LDL (sigma) was dissolved in distilled water at a concentration of 1 mg/ml. LDL was dialyzed against three changes of phosphate-buffered solution before oxidation to remove EDTA (ethylenediamine tetraacetate) at 4 °C for 18 hr. EDTA-free LDL (100 ug LDL protein/ml) was incubated in EDTA-free phosphate-buffered solution at 37 °C for 18 hr in the presence of CuSO4 (10 uM) under pretreatment with the test compounds or tochopherol of which final concentrations were 10^-9, 10^-7, and 10^-5 M. Blank was incubated without CuSO^., and vehicle was used as a solvent group. Oxidation was stopped at 4 °C by addition of EDTA (200 uM).
Copper (Cu^+2) facilitates the oxidation of LDL to produce malondialdehyde (MDA), thus the lipid peroxidation was determined by MDA quantification same as the above example 5 (1). The MDA quantification was estimated by reacting samples with 2-thiobarbituric acid (TBA) and measuring the absorbance at 530 nm. 1,1,3,3-Tetramethoxy propane (Sigma) was used as a standard agent, and calculated the quantity of MDA as nmol of MDA equivalents per mg protein. The inhibitory effect of the test compounds against the lipid peroxidation was evaluated by calculating MDA reduction rate of the test compounds compared with that of the control group.

[3] = ORAC (oxygen-radical absorbance capacity) assay; type: biochemical; details: 1 ORAC unit = net protection by 1 uM Trolox
Protocol: The method utilized β-PE (β-phycoerythrin) as an indicator protein, and AAPH (2,2'-azobis(2-amidinopropane) dihydrochloride) as a peroxy radical generator. Reaction mixtures consisted of test compounds (10^-6M and 10^-4M), β-PE (1.76 x 10^-8M), and AAPH (3 x 10^-3 M) in 75 mM phosphate buffer (pH 7.0). A final volume of 2 ml was used in 24 well plates. Test compounds were first dissolved in acetone and then added to the reaction mixture. Once AAPH was added, the reaction was initiated at 37 °C and the fluorescence (485 nm excitation, 590 nm emission) was measured every 5 min using Fluorescence reader (FL600, Biotek Instrument). The ORAC units were calculated based on the area under the fluorescence curve of β-PE in the presence of the test compound compared to the area generated by 1 uM Trolox. 1 ORAC unit represents the net protection provided by 1 uM Trolox.

## O=C(O)CCCCC1CCSS1 (stereo not shown) [Lipoic acid, reference compound]
Diabetic rats [1]; latency of licking
  Nociceptive response: 4.371 s
Diabetic rats [1]; nociceptive responses
  Recovery (%): 60.2%
Diabetic rats [2]
  Recovery (%): 136.6%

## Tocopherol [reference compound]
A7r5; 10^-4 M
  % Inhibition LDL + H2O2 (10^-7M): 63.9%
A7r5; 10^-5 M
  % Inhibition LDL: 57.0%
  % Inhibition LDL + H2O2 (10^-7M): 53.0%
A7r5; 10^-6 M
  % Inhibition LDL: 41.1%
  % Inhibition LDL + H2O2 (10^-7M): 43.2%
HUVEC; Conc. 10^-5 M
  Inhibition (%) H2O2 (10^-5M): 51.0%
  Inhibition (%) H2O2 (10^-6M): 60.8%
HUVEC; Conc. 10^-6 M
  Inhibition (%) H2O2 (10^-5M): 30.7%
  Inhibition (%) H2O2 (10^-6M): 43.2%
HUVEC; Conc. 10^-7 M
  Inhibition (%) H2O2 (10^-5M): 8.8%
  Inhibition (%) H2O2 (10^-6M): 13.8%
Human LDL; 10^-5 M
  % Inhibition: 29.7%
Human LDL; 10^-7 M, 0.1 µM
  % Inhibition: 21.3%
Human LDL; 10^-9 M, 0.001 µM
  % Inhibition: 18.5%
[3]; Conc. 10^-4 M
  ORAC units: 1.568 ORAC units
[3]; Conc. 10^-6 M
  ORAC units: 1.0 ORAC units
